# Test results as given in patent publication US9663764B2, “Generation of cardiomyocytes from human pluripotent stem cells” (Wisconsin Alumni Research Foundation, priority 2011, dated 2017).
# Tested on: H9-7TGP cells
# Assay: Immunofluorescent analysis of CH-induced H9-7TGP GFP+ cells
# Assay type: cell-based, human
# Conditions: 12 μM CHIR99021 in mTeSR1 for 4 days
# Method: Immunostaining: Cells were fixed with 4% paraformaldehyde for 15 min at room temperature and then stained with primary and secondary antibodies in PBS plus 0.4% Triton X-100 and 5% non-fat dry milk (Bio-Rad). Nuclei were stained with Gold Anti-fade Reagent with DAPI (Invitrogen). An epifluorescence microscope (Leica DM IRB) with a QImaging® Retiga 4000R camera was used for imaging analysis. In order to probe the activation of canonical Wnt/β-catenin signaling during hPS cell specification to cardiomyocytes, the inventors generated a series of promoter-reporter cell lines in H1 and H9 hESC, and 19-9-11 human iPSC lines. These reporter lines, integrated with a lentiviral 7TGP vector, express GFP under control of a consensus TCF/LEF binding sequence promoter which reports β-catenin activation (FIG. 2A) (Fuerer and Nusse, PLoS One 5:e9370 (2010)). […] Approximately 50% of H9-7TGP cells expressed GFP at 4 days post-addition of 15 μM CH.
smiles,measurement,value
Cc1c[nH]c(-c2cnc(NCCNc3ccc(C#N)cn3)nc2-c2ccc(Cl)cc2Cl)n1 [CH],"Oct4, Isl1 and Nkx2.5 expression in CH-induced GFP+ cells","did not express Oct4, but did express Isl1 and Nkx2.5"
